Assay results published in ChEMBL document CHEMBL1149623, “Identification of antibacterial and antiviral activities of novel fused 1,2,4-triazine esters” (2007).

Assays:
[1] = test system: HEK293; test: Cytotoxicity against human HEK293 cells at 100 ug/mL after 72 hrs by MTT assay; format: functional
[2] = Cytotoxicity against monkey GMK cells at 2.5 ug/mL after 72 hrs by MTT assay; format: functional, Chlorocebus aethiops
[3] = Cytotoxicity against monkey GMK cells at 50 ug/mL after 24 hrs by MTT assay; format: functional, Chlorocebus aethiops
[4] = Cytotoxicity against monkey GMK cells at 10 ug/mL after 24 hrs by MTT assay; format: functional, Chlorocebus aethiops
[5] = test system: Staphylococcus aureus; test: Antibacterial activity against Staphylococcus aureus ATCC 25923 at 100 mg/mL after 24 hrs by disc diffusion method; format: functional
[6] = test system: Staphylococcus epidermidis; test: Antibacterial activity against Staphylococcus epidermidis at 100 mg/mL after 24 hrs by disc diffusion method; format: functional
[7] = test system: Streptococcus pyogenes; test: Antibacterial activity against Streptococcus pyogenes at 100 mg/mL after 24 hrs by disc diffusion method; format: functional
[8] = test system: Escherichia coli; test: Antibacterial activity against Escherichia coli ATCC 25922 at 100 mg/mL after 24 hrs by disc diffusion method; format: functional
[9] = Cytotoxicity against monkey GMK cells at 200 ug/mL after 24 hrs by MTT assay; format: functional, Chlorocebus aethiops
[10] = Cytotoxicity against monkey GMK cells at 100 ug/mL after 48 hrs by MTT assay; format: functional, Chlorocebus aethiops
[11] = Cytotoxicity against monkey GMK cells at 5 ug/mL after 72 hrs by MTT assay; format: functional, Chlorocebus aethiops
[12] = Cytotoxicity against monkey GMK cells at 200 ug/mL after 72 hrs by MTT assay; format: functional, Chlorocebus aethiops
[13] = Cytotoxicity against monkey GMK cells at 5 ug/mL after 96 hrs by MTT assay; format: functional, Chlorocebus aethiops
[14] = Cytotoxicity against monkey GMK cells at 100 ug/mL after 96 hrs by MTT assay; format: functional, Chlorocebus aethiops
[15] = test system: HEK293; test: Cytotoxicity against human HEK293 cells at 50 ug/mL after 24 hrs by MTT assay; format: functional
[16] = test system: HEK293; test: Cytotoxicity against human HEK293 cells at 100 ug/mL after 24 hrs by MTT assay; format: functional
[17] = test system: HEK293; test: Cytotoxicity against human HEK293 cells at 5 ug/mL after 72 hrs by MTT assay; format: functional
[18] = test system: HEK293; test: Cytotoxicity against human HEK293 cells at 100 ug/mL after 96 hrs by MTT assay; format: functional
[19] = test system: HEK293; test: Cytotoxicity against human HEK293 cells at 25 ug/mL after 120 hrs by MTT assay; format: functional
[20] = test system: HEK293; test: Cytotoxicity against human HEK293 cells at 50 ug/mL after 120 hrs by MTT assay; format: functional
[21] = test system: HEK293; test: Cytotoxicity against human HEK293 cells at 100 ug/mL after 120 hrs by MTT assay; format: functional
[22] = test system: Human adenovirus 5; test: Antiviral activity against Human adenovirus 5 in HEK293 cells assessed as virus titre at 200 ug/mL after 1 hr; format: functional
[23] = test system: Echovirus E9; test: Antiviral activity against Human echovirus 9 in GMK cells assessed as virus titre at 50 ug/mL after 1 hr; format: functional
[24] = test system: Human adenovirus 5; test: Antiviral activity against Human adenovirus 5 in HEK293 cells assessed as inhibition of virus titre at 200 ug/mL after 24 hrs by CPE method; format: functional; details: Human mastadenovirus C, HEK293, 24 h
[25] = test system: Echovirus E9; test: Antiviral activity against Human echovirus 9 in GMK cells assessed as inhibition of virus titre at 100 ug/mL after 24 hrs by CPE method; format: functional; details: Enterovirus B
[26] = test system: Human adenovirus 5; test: Antiviral activity against Human adenovirus 5 in HEK293 cells assessed as inhibition of virus titre at 50 ug/mL after 24 hrs by CPE method; format: functional; details: Human mastadenovirus C, HEK293, 24 h
[27] = test system: Human adenovirus 5; test: Antiviral activity against Human adenovirus 5 in HEK293 cells assessed as inhibition of virus titre at 100 ug/mL after 24 hrs by CPE method; format: functional; details: Human mastadenovirus C, HEK293, 24 h
[28] = test system: Echovirus E9; test: Antiviral activity against Human echovirus 9 in GMK cells assessed as inhibition of virus titre at 50 ug/mL after 24 hrs by CPE method; format: functional; details: Enterovirus B
[29] = test system: Echovirus E9; test: Antiviral activity against Human echovirus 9 in GMK cells assessed as inhibition of virus titre at 200 ug/mL after 24 hrs by CPE method; format: functional; details: Enterovirus B

Compound | Activity [1] [%] | Activity [2] [%] | Activity [3] [%] | Activity [4] [%] | Inhibition [5] [mm] | Activity [9] [%] | Activity [10] [%] | Activity [11] [%] | Activity [12] [%] | Activity [13] [%] | Activity [14] [%] | Activity [15] [%] | Activity [16] [%] | Activity [17] [%] | Activity [18] [%] | Activity [19] [%] | Activity [20] [%] | Activity [21] [%] | TCID50 [22] [mL⁻¹] | TCID50 [23] [mL⁻¹] | other results
COC(=O)CC1NN=C2N(CCN2c2cccc(Cl)c2)C1=O (configuration not stated) | 55 | 100 | 100 | 100 | 16 | 80 | 50 | 100 | 20 | 100 | 0 | 95 | 98 | 100 | 50 | 95 | 90 | 50 | 3.23 | 3.33 | Inhibition [6]: 16 mm; Inhibition [7]: 10 mm; Inhibition [8]: >20 mm; inhibition at 200 µg/mL [24]: 8%; inhibition at 100 µg/mL [25]: 9.9%
CCOC(=O)CC1NN=C2N(CCN2c2ccc(C)cc2)C1=O (configuration not stated) | 70 | 100 | 90 | 100 | – | 0 | 80 | 100 | 0 | 100 | 70 | 90 | 70 | 100 | 70 | 95 | 75 | 70 | 2.5 | 3.67 | inhibition at 50 µg/mL [26]: 23%; inhibition at 100 µg/mL [27]: 23%; inhibition at 200 µg/mL [24]: 23%
CCOC(=O)CC1NN=C2N(CCN2c2ccc(Cl)cc2)C1=O (configuration not stated) | 70 | 100 | 100 | 100 | <9 | 100 | 100 | 100 | 100 | 100 | 100 | 100 | 95 | 100 | 70 | 100 | 100 | 50 | 3.5 | 4.23 | Inhibition [6]: 16 mm; Inhibition [7]: >20 mm; Inhibition [8]: 10 mm; inhibition at 50 µg/mL [28]: 9.4%; inhibition at 200 µg/mL [29]: 25%
